The source of these data is US20140243302A1, “BRIDGED BICYCLIC COMPOUNDS FOR THE TREATMENT OF BACTERIAL INFECTIONS” (priority 2011, published 2014).

≈ marks a conversion by molar mass, not a printed value.

The test deals with Staphylococcus aureus Smith. Nature of the test: MIC assay, modified agar dilution (CLSI), S. aureus Smith. Format: cell-based. To be noted: Staphylococcus aureus, agar dilution, 35° C., 16-20 hr; lowest concentration that completely inhibited growth; read-out: S_aureus_Smith_WT_MIC. The essentials:
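Strains were spotted at about 1×10^4 CFU onto compound-containing Mueller Hinton agar (two-fold series, 128-0.001 μg/mL), horse blood 5% added for pneumococcus and enterococcus. MIC read after 16-20 hr at 35 °C, following a modified CLSI agar dilution method.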
As for `COc1ccc2ncc(Cl)c(CCC34CCC(NCc5ccc6c(c5)NC(=O)CO6)(CC3)CC4)c2n1` [Example 56, 6-((4-(2-(3-Chloro-6-methoxy-1,5-naphthyridin-4-yl)ethyl)bicyclo[2.2.2]octan-1-ylamino)methyl)-2H-benzo[b][1,4]oxazin-3(4H)-one], the MIC is 0.031 µg/mL (≈ 0.0611 µM).
Take `COc1ccc2nc(CNC34CCC(CCc5c(Cl)cnc6ccc(OC)nc56)(CC3)CC4)ccc2c1` [Example 57, 4-(2-(3-Chloro-6-methoxy-1,5-naphthyridin-4-yl)ethyl)-N-((6-methoxyquinolin-2-yl)methyl)bicyclo[2.2.2]octan-1-amine]: the MIC is 4 µg/mL (≈ 7.74 µM).
With `COc1ccc2ncc(Cl)c(CCC34CCC(NCc5ccc6cccnc6n5)(CC3)CC4)c2n1` [Example 58, N-((1,8-Naphthyridin-2-yl)methyl)-4-(2-(3-chloro-6-methoxy-1,5-naphthyridin-4-yl)ethyl)bicyclo[2.2.2]octan-1-amine] the figure was 0.125 µg/mL (≈ 0.256 µM); with `COc1ccc2ncc(F)c(CCC34CCC(NCc5ccc(C)c(F)c5)(CC3)CO4)c2n1` [Example 59, N-(3-Fluoro-4-methylbenzyl)-1-(2-(3-fluoro-6-methoxy-1,5-naphthyridin-4-yl)ethyl)-2-oxabicyclo[2.2.2]octan-4-amine], 0.016 µg/mL (≈ 0.0353 µM); with `COc1ccc2ncc(F)c(CCC34CCC(NCc5cccc(C#N)n5)(CC3)CO4)c2n1` [Example 60, 6-(((1-(2-(3-Fluoro-6-methoxy-1,5-naphthyridin-4-yl)ethyl)-2-oxabicyclo[2.2.2]octan-4-yl)amino)methyl)picolinonitrile], 8 µg/mL (≈ 17.9 µM).
With `COc1ccc2ncc(F)c(CCC34CCC(NCc5cc6c(cn5)OCCO6)(CC3)CO4)c2n1` [Example 61, N-((2,3-Dihydro-[1,4]dioxino[2,3-c]pyridin-7-yl)methyl)-1-(2-(3-fluoro-6-methoxy-1,5-naphthyridin-4-yl)ethyl)-2-oxabicyclo[2.2.2]octan-4-amine] the figure was 0.063 µg/mL (≈ 0.131 µM).
With `COc1ccc2ncc(F)c(CCC34CCC(NCc5cc(OC)c(OC)cn5)(CC3)CO4)c2n1` [Example 62, N-((4,5-Dimethoxypyridin-2-yl)methyl)-1-(2-(3-fluoro-6-methoxy-1,5-naphthyridin-4-yl)ethyl)-2-oxabicyclo[2.2.2]octan-4-amine] the figure was 4 µg/mL (≈ 8.29 µM).
In the case of `COc1ccc2ncc(F)c(CCC34CCC(NCc5ccc(N6CCCC6)cn5)(CC3)CO4)c2n1` [Example 63, 1-(2-(3-Fluoro-6-methoxy-1,5-naphthyridin-4-yl)ethyl)-N-((5-(pyrrolidin-1-yl)pyridin-2-yl)methyl)-2-oxabicyclo[2.2.2]octan-4-amine], the MIC was determined as 0.25 µg/mL (≈ 0.509 µM).
With `COc1ccc2ncc(F)c(CCC34CCC(NCc5ccc(N6CCOCC6)nc5)(CC3)CO4)c2n1` [Example 64, 1-(2-(3-Fluoro-6-methoxy-1,5-naphthyridin-4-yl)ethyl)-N-((6-morpholinopyridin-3-yl)methyl)-2-oxabicyclo[2.2.2]octan-4-amine] the figure was 4 µg/mL (≈ 7.88 µM); with `COc1ccc2ncc(F)c(CCC34CCC(NCc5cnc(N6CCOCC6)nc5)(CC3)CO4)c2n1` [Example 65, 1-(2-(3-Fluoro-6-methoxy-1,5-naphthyridin-4-yl)ethyl)-N-((2-morpholinopyrimidin-5-yl)methyl)-2-oxabicyclo[2.2.2]octan-4-amine], 2 µg/mL (≈ 3.93 µM); with `COc1ccc2ncc(F)c(CCC34CCC(NCc5ccc6c(c5)OCCN6C)(CC3)CO4)c2n1` [Example 66, 1-(2-(3-Fluoro-6-methoxy-1,5-naphthyridin-4-yl)ethyl)-N-((4-methyl-3,4-dihydro-2H-benzo[b][1,4]oxazin-7-yl)methyl)-2-oxabicyclo[2.2.2]octan-4-amine], 0.125 µg/mL (≈ 0.254 µM).
With `COc1ccc2ncc(F)c(CCC34CCC(NCc5cc(Cl)c6c(c5)OCCO6)(CC3)CO4)c2n1` [Example 67, N-((8-Chloro-2,3-dihydrobenzo[b][1,4]dioxin-6-yl)methyl)-1-(2-(3-fluoro-6-methoxy-1,5-naphthyridin-4-yl)ethyl)-2-oxabicyclo[2.2.2]octan-4-amine] the figure was 0.031 µg/mL (≈ 0.0603 µM); with `COc1ccc2ncc(F)c(CCC34CCC(NC(=O)c5ccc(C)c(F)c5)(CC3)CO4)c2n1` [Example 68, 3-Fluoro-N-(1-(2-(3-fluoro-6-methoxy-1,5-naphthyridin-4-yl)ethyl)-2-oxabicyclo[2.2.2]octan-4-yl)-4-methylbenzamide], 0.016 µg/mL (≈ 0.0342 µM).
For `COc1ccc2ncc(F)c(CCC34CCC(NCc5ccc6c(c5)OCCO6)(CC3)CO4)c2n1` [Example 69, N-((2,3-Dihydrobenzo[b][1,4]dioxin-6-yl)methyl)-1-(2-(3-fluoro-6-methoxy-1,5-naphthyridin-4-yl)ethyl)-2-oxabicyclo[2.2.2]octan-4-amine] the value was 0.008 µg/mL (≈ 0.0167 µM); for `COc1ccc2ncc(F)c(CCC34CCC(NCC5CCCCC5)(CC3)CO4)c2n1` [Example 70, N-(Cyclohexylmethyl)-1-(2-(3-fluoro-6-methoxy-1,5-naphthyridin-4-yl)ethyl)-2-oxabicyclo[2.2.2]octan-4-amine], 2 µg/mL (≈ 4.68 µM); for `COc1ccc2ncc(F)c(CCC34CCC(NS(=O)(=O)c5ccc(C)c(F)c5)(CC3)CO4)c2n1` [Example 71, 3-Fluoro-N-(1-(2-(3-fluoro-6-methoxy-1,5-naphthyridin-4-yl)ethyl)-2-oxabicyclo[2.2.2]octan-4-yl)-4-methylbenzenesulfonamide], 1 µg/mL (≈ 1.99 µM).
In the case of `COc1ccc2ncc(F)c(CCC34CCC(NCc5cc(Cl)c6c(c5)OCO6)(CC3)CO4)c2n1` [Example 72, N-((7-Chlorobenzo[d][1,3]dioxol-5-yl)methyl)-1-(2-(3-fluoro-6-methoxy-1,5-naphthyridin-4-yl)ethyl)-2-oxabicyclo[2.2.2]octan-4-amine], the MIC was determined as 0.125 µg/mL (≈ 0.25 µM).
In the case of `COc1ccc2ncc(F)c(CCC34CCC(NCc5cc(-c6cccs6)on5)(CC3)CO4)c2n1` [Example 73, 1-(2-(3-Fluoro-6-methoxy-1,5-naphthyridin-4-yl)ethyl)-N-((5-(thiophen-2-yl)isoxazol-3-yl)methyl)-2-oxabicyclo[2.2.2]octan-4-amine], the MIC amounted to 0.016 µg/mL (≈ 0.0323 µM).
For `COc1ccc2ncc(F)c(CCC34CCC(NCc5csc(-c6ccccn6)n5)(CC3)CO4)c2n1` [Example 75, 1-(2-(3-Fluoro-6-methoxy-1,5-naphthyridin-4-yl)ethyl)-N-((2-(pyridin-2-yl)thiazol-4-yl)methyl)-2-oxabicyclo[2.2.2]octan-4-amine] the value was 4 µg/mL (≈ 7.91 µM).
For `COc1ccc2ncc(F)c(CCC34CCC(NCc5cn(-c6ncccn6)cn5)(CC3)CO4)c2n1` [Example 76, 1-(2-(3-Fluoro-6-methoxy-1,5-naphthyridin-4-yl)ethyl)-N-((1-(pyrimidin-2-yl)-1H-imidazol-4-yl)methyl)-2-oxabicyclo[2.2.2]octan-4-amine] the value was 0.125 µg/mL (≈ 0.255 µM); for `COc1ccc2ncc(F)c(CCC34CCC(NCc5cc6cccnc6s5)(CC3)CO4)c2n1` [Example 77, 1-(2-(3-Fluoro-6-methoxy-1,5-naphthyridin-4-yl)ethyl)-N-(thieno[2,3-b]pyridin-2-ylmethyl)-2-oxabicyclo[2.2.2]octan-4-amine], 0.125 µg/mL (≈ 0.261 µM); for `COc1ccc2ncc(F)c(CCC34CCC(NCc5cnc(N6CCCC6)nc5)(CC3)CO4)c2n1` [Example 78, 1-(2-(3-Fluoro-6-methoxy-1,5-naphthyridin-4-yl)ethyl)-N-((2-(pyrrolidin-1-yl)pyrimidin-5-yl)methyl)-2-oxabicyclo[2.2.2]octan-4-amine], 0.25 µg/mL (≈ 0.508 µM).
For `COc1ccc2ncc(F)c(CCC34CCC(NCc5cc6ccccc6n(C)c5=O)(CC3)CO4)c2n1` [Example 79, 3-((1-(2-(3-Fluoro-6-methoxy-1,5-naphthyridin-4-yl)ethyl)-2-oxabicyclo[2.2.2]octan-4-ylamino)methyl)-1-methylquinolin-2(1H)-one] the value was 0.5 µg/mL (≈ 0.995 µM); for `COc1ccc2ncc(F)c(CCC34CCC(NCc5ccc6cc[nH]c6n5)(CC3)CO4)c2n1` [Example 80, N-((1H-Pyrrolo[2,3-b]pyridin-6-yl)methyl)-1-(2-(3-fluoro-6-methoxy-1,5-naphthyridin-4-yl)ethyl)-2-oxabicyclo[2.2.2]octan-4-amine], 0.063 µg/mL (≈ 0.136 µM); for `COc1ccc2ncc(F)c(CCC34CCC(NCc5cnc6[nH]ccc6c5)(CC3)CO4)c2n1` [Example 81, N-((1H-Pyrrolo[2,3-b]pyridin-5-yl)methyl)-1-(2-(3-fluoro-6-methoxy-1,5-naphthyridin-4-yl)ethyl)-2-oxabicyclo[2.2.2]octan-4-amine], 0.5 µg/mL (≈ 1.08 µM).
Consider `COc1ccc2ncc(F)c(CCC34CCC(NCc5ccc(N6CCCC6)nc5)(CC3)CO4)c2n1` [Example 82, 1-(2-(3-Fluoro-6-methoxy-1,5-naphthyridin-4-yl)ethyl)-N-((6-(pyrrolidin-1-yl)pyridin-3-yl)methyl)-2-oxabicyclo[2.2.2]octan-4-amine], for which the MIC is 0.25 µg/mL (≈ 0.509 µM).
For `COc1ccc2ncc(F)c(CCC34CCC(NCc5ccc6ccc(=O)[nH]c6n5)(CC3)CO4)c2n1` [Example 83, 7-((1-(2-(3-Fluoro-6-methoxy-1,5-naphthyridin-4-yl)ethyl)-2-oxabicyclo[2.2.2]octan-4-ylamino)methyl)-1,8-naphthyridin-2(1H)-one] the value was 1 µg/mL (≈ 2.04 µM).
With `COc1ccc2ncc(F)c(CCC34CCC(NCc5ccc(N6CCCCC6)nc5)(CC3)CO4)c2n1` [Example 84, 1-(2-(3-Fluoro-6-methoxy-1,5-naphthyridin-4-yl)ethyl)-N-((6-(piperidin-1-yl)pyridin-3-yl)methyl)-2-oxabicyclo[2.2.2]octan-4-amine] the figure was 0.25 µg/mL (≈ 0.494 µM); with `COc1ccc2ncc(F)c(CCC34CCC(NCc5cnc(N(C)C)nc5)(CC3)CO4)c2n1` [Example 85, 5-((1-(2-(3-Fluoro-6-methoxy-1,5-naphthyridin-4-yl)ethyl)-2-oxabicyclo[2.2.2]octan-4-ylamino)methyl)-N,N-dimethylpyrimidin-2-amine], 0.125 µg/mL (≈ 0.268 µM).
